Measured values taken from patent US20260035387A1 (BIOGEN MA INC., priority 2022, published 2026).

Tested on: mutant Huntington (HTT) protein
Experiment: HTT Mutant HTRF iPSC assay (mHTT protein lowering)
Assay type: cell-based
Settings: human iPSC derived from a HTT patient with a poly-Q49 mutation

Row | Compound | IC50
1 | Cc1cn2cc(NC(=O)c3cc4ccc(N5CCC(N(C)C)C5)nc4s3)nc(C)c2n1 (centres unmarked) [Compound 5, 6-(3-(dimethylamino)pyrrolidin-1-yl)-N-(2,8-dimethylimidazo[1,2-a]pyrazin-6-yl)thieno[2,3-b]pyridine-2-carboxamide] | 100 to 1000 nM
2 | Cc1cn2cc(NC(=O)c3cc4ccc(N5CCCC5)nc4s3)nc(C)c2n1 [Compound 57, N-(2,8-dimethylimidazo[1,2-a]pyrazin-6-yl)-6-(pyrrolidin-1-yl)thieno[2,3-b]pyridine-2-carboxamide] | 1000 to 9000 nM
3 | Cc1nc(NC(=O)c2cc3ccc(N4CCC5(CCCN5C)C4)nc3s2)cc2cn(C)nc12 (centres unmarked) [Compound 230, N-(2,7-dimethyl-2H-pyrazolo[3,4-c]pyridin-5-yl)-6-(1-methyl-1,7-diazaspiro[4.4]nonan-7-yl)thieno[2,3-b]pyridine-2-carboxamide] | < 100 nM
4 | CCN1CCC(Oc2ccc3cc(C(=O)Nc4cc(F)c5nc(C)cn5c4)sc3n2)C1 (racemic) [Compound 161, 6-((1-ethylpyrrolidin-3-yl)oxy)-N-(8-fluoro-2-methylimidazo[1,2-a]pyridin-6-yl)thieno[2,3-b]pyridine-2-carboxamide] | < 100 nM
5 | COc1nc(NC(=O)c2cc3ccc(C4CCN(C)CC4)nc3s2)cn2cc(C)nc12 [Compound 184, N-(8-methoxy-2-methylimidazo[1,2-a]pyrazin-6-yl)-6-(1-methylpiperidin-4-yl)thieno[2,3-b]pyridine-2-carboxamide] | < 100 nM
6 | Cc1cn2cc(NC(=O)c3cc4ccc(OC5C[C@@H](C)N[C@H](C)C5)nc4s3)cc(F)c2n1 (some centres unmarked) [Compound 157] | 100 to 1000 nM
7 | Cc1cn2cc(NC(=O)c3cc4ccc(OC5CC6(CCN(C)CC6)C5)nc4s3)cc(F)c2n1 [Compound 162, N-(8-fluoro-2-methylimidazo[1,2-a]pyridin-6-yl)-6-((7-methyl-7-azaspiro[3.5]nonan-2-yl)oxy)thieno[2,3-b]pyridine-2-carboxamide] | 100 to 1000 nM
8 | Cc1cn2cc(NC(=O)c3nc4ccc(N5CC[C@@H](N6CCC6)C5)nc4s3)cc(F)c2n1 (stereo in doubt) [Compound 92, (rel-(R)-5-(3-(azetidin-1-yl)pyrrolidin-1-yl)-N-(8-fluoro-2-methylimidazo[1,2-a]pyridin-6-yl)thiazolo[5,4-b]pyridine-2-carboxamide] | < 100 nM
9 | COc1cc2nn(C)cc2cc1NC(=O)c1cc2ncc(N3CCC4(CCN4C)C3)nc2s1 (single isomer, unassigned) [Compound 264] | < 100 nM
10 | Cc1cn2cc(NC(=O)c3cc4ccc(N5C[C@H]6CN(C)C[C@H]65)nc4s3)cc(F)c2n1 [Compound 217, N-(8-fluoro-2-methylimidazo[1,2-a]pyridin-6-yl)-6-((1R,5S)-3-methyl-3,6-diazabicyclo[3.2.0]heptan-6-yl)thieno[2,3-b]pyridine-2-carboxamide] | < 100 nM
11 | COc1c(NC(=O)c2nc3ccc(N4CCC5(CCCN5C)C4)nc3s2)cn2cc(C)nc2c1F (single isomer, unassigned) [Compound 127] | < 100 nM
12 | CN(C)C1CCN(c2ccc3cc(C(=O)Nc4ccc5[nH]c(=O)n(C)c5c4)sc3n2)C1 (centres unmarked) [Compound 49, 6-(3-(dimethylamino)pyrrolidin-1-yl)-N-(3-methyl-2-oxo-2,3-dihydro-1H-benzo[d]imidazol-5-yl)thieno[2,3-b]pyridine-2-carboxamide] | 1000 to 9000 nM
13 | Cc1cn2cc(NC(=O)c3cc4ccc(N5CCN(C(C)C)CC5)nc4s3)nc(C)c2n1 [Compound 233, N-(2,8-dimethylimidazo[1,2-a]pyrazin-6-yl)-6-(4-isopropylpiperazin-1-yl)thieno[2,3-b]pyridine-2-carboxamide] | < 100 nM
14 | Cc1cn2cc(NC(=O)c3nc4ccc(N5CCC(N6CCC6)C5)nc4s3)nc(C)c2n1 (centres unmarked) [Compound 122, 5-(3-(azetidin-1-yl)pyrrolidin-1-yl)-N-(2,8-dimethylimidazo[1,2-a]pyrazin-6-yl)thiazolo[5,4-b]pyridine-2-carboxamide] | 1000 to 9000 nM
